{"source": "paper PMC4980083", "about": "(JCI insight, 2016)", "key": {"[1]": {"target": "T1, recombinant AR LBD (Homo sapiens, UniProt P10275)", "T1 sequence (P10275 669-900 limits assumed)": "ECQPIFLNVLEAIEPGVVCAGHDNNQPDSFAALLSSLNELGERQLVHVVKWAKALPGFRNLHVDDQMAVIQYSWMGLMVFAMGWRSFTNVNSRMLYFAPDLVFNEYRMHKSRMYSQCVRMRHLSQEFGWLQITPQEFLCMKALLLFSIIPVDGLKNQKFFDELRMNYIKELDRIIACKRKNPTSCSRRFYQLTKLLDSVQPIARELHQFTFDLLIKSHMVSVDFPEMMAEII", "assay": "Fluorescence polarization competition binding, AR LBD", "settings": "1 nM fluorescently labeled ligand, AR LBD 25 nM"}, "[2]": {"target": "T2, PRβ (Homo sapiens, UniProt P06401)", "T2 sequence (P06401 1-933)": "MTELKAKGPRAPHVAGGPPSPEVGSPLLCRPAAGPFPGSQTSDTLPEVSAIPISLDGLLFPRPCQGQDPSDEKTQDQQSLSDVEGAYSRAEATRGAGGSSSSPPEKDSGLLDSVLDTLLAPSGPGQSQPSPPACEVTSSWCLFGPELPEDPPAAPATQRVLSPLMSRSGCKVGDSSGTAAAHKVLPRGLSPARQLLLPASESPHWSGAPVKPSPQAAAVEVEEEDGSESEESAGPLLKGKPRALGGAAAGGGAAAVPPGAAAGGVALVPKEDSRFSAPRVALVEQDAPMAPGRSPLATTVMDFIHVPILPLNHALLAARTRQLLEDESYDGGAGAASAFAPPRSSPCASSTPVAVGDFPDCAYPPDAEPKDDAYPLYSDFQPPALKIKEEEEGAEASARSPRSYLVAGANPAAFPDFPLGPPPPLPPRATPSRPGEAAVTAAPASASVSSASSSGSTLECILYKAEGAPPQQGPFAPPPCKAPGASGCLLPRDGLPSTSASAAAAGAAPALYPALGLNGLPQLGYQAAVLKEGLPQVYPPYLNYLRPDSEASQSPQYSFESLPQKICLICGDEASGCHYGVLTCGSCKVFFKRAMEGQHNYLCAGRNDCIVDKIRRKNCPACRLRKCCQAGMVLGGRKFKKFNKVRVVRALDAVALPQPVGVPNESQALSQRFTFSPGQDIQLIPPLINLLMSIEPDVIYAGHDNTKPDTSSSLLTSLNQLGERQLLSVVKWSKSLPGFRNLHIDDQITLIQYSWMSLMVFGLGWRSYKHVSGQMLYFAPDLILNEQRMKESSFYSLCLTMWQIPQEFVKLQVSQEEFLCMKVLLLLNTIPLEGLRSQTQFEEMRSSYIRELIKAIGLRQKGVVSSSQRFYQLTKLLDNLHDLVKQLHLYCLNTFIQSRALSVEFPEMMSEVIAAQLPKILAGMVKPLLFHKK", "assay": "PR transcriptional activity, PRE luciferase reporter", "format": "cell-based", "settings": "2 μM; progesterone 10 nM"}, "[3]": {"target": "ERα (Homo sapiens, UniProt P03372)", "sequence (P03372 whole entry)": "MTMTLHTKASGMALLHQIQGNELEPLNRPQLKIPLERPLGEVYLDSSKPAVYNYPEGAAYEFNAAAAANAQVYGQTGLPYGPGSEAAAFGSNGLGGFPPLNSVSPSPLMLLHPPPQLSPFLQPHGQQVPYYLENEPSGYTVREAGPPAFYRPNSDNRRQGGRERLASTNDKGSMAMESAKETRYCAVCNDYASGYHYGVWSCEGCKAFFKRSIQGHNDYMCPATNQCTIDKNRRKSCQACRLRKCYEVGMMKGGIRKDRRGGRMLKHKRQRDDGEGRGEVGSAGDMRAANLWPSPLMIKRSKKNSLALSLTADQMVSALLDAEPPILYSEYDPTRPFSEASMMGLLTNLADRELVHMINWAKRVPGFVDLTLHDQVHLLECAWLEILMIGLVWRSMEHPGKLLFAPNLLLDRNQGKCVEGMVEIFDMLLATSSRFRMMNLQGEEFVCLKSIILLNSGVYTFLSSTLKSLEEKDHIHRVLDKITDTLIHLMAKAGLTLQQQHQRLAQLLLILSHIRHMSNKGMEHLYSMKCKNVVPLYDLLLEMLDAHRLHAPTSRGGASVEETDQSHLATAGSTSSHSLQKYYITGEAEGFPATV", "assay": "ER transcriptional activity, ERE luciferase reporter", "format": "cell-based", "settings": "estradiol induced"}}}
{"substance": "15-IodoEPI002 [I-EPI-002]", "values": [{"measurement": "competition with fluoromone for binding to AR LBD", "setting": "[1]", "result": "did not prevent ligand-binding"}, {"measurement": "inhibition of PR transcriptional activity", "setting": "[2]", "result": "did not inhibit"}, {"measurement": "inhibition of ER transcriptional activity", "setting": "[3]", "result": "did not inhibit"}]}
